Data on 3 molecules can be found in paper PMC4590290 (Bioorganic chemistry, 2009).

Each structure is given as a SMILES string.

In assay [1] the target is T1, GlAD (Giardia duodenalis, UniProt Q27657). Put plainly: steady-state inhibition, glutamate dehydrogenase-coupled assay. The assay is classed as biochemical.
The target in assay [2] is T1, GlAD. The assay is classed as biochemical. Conditions: read-out: KI; pH 7.5, 25 °C, 50 mM K+HEPES; covalent; irreversible, two-step inactivation; active site directed.

As usually defined, the Ki is a dissociation constant, usually derived from enzyme kinetics or from competition with a known ligand. Low values mean a stronger hold on the target, high ones a looser hold on the target. `N=C(N)NCCCC[C@H](N)C(=O)O` [L-homoarginine] had a Ki at GlAD [1] of 48 ± 6 mM.

Consider `N[C@@H](CCSN=O)C(=O)O` [S-nitroso-L-homocysteine], for which the KI (inactivation) at GlAD [2] was 40 ± 10 mM.

At GlAD [1], `N=C(N)NCCCCN` [agmatine] yielded a Ki of 50 ± 10 mM.
